As a reminder, the Cmax is the maximum level reached in the sampled fluid or tissue.

The record followed here is paper PMC8592624, “Rapid and improved oral absorption of N-butylphthalide by sodium cholate-appended liposomes for efficient ischemic stroke therapy” (Drug Delivery, 2021).

SMILES strings stand for the structures.

One data set can be described thus: Pharmacokinetics in rats. It is filed as in vivo, Sprague-Dawley rats. As for the experimental part:
Male Sprague-Dawley rats (250 ± 20 g) were obtained from the laboratory animal center of Zhengzhou University (Zhengzhou, China). The animal experiments were conducted in accordance with the Regional Ethics Committee and protocols from the Institutional Animal Care and Use Committee of Zhengzhou University. Rats were fasted overnight with free access of water before the pharmacokinetic studies. To begin with, rats were randomly assigned into three groups. […] 0.5 mL of blood was taken from rats by retro-orbital sinus at 0.083, 0.25, 0.5, 1, 2, 3, 4, 6, 8, and 10 h after administration, respectively. The concentration of NBP in plasma was determined by HPLC after suitable processing. Briefly, 300 µL methanol was mixed with 100 µL of plasma and the resultant suspension was centrifuged (12,000 rpm, 10 min). The supernatant obtained was analyzed by a validated HPLC method (Supplementary Table 2). The pharmacokinetic parameters were obtained using DAS 3.0 software (Mathematical Pharmacology Professional Committee of China) and were presented as mean ± SD. The absolute bioavailability (Fa) and the relative bioavailability (Fr) were calculated by the following equations, respectively: (4) Fa (%)=AUC0−t, oralDosei.v/AUC0−t, i.vDoseoral (5) Fr (%)=AUC0−t, formulation/AUC0−t, NBP suspension
Where AUC0−t represents the area under the pharmacokinetic curve throughout the study.

The nature of data set [1]: In vitro drug release (dialysis method). It is filed as physicochemical. The protocol: The release curves of the formulations were obtained using a dialysis method (Zhang et al., [2011]). […] The following procedures were performed as above.
Data set [2] relates to cerebral ischemia/reperfusion (I/R) model. As to the kind of experiment: Cerebral ischemia/reperfusion (I/R) model, middle cerebral artery occlusion (MCAO). The note with it: MCAO rats, 30 mg/kg p.o. It is filed as in vivo. As for the experimental part:
Rats (280-320 g) were divided into five groups randomly (n = 10 per group): […] After lateral neck incision, the internal carotid artery, right common carotid artery […] and external carotid artery were exposed. A surgical nylon suture was gently advanced to occlude MCA until slight resistance was felt (18-20 mm from MCA bifurcation). 1.5 hours post MCAO, reperfusion was inducted by taking out the suture and the rats were immediately orally given the predetermined formulations. The sham operated group received the same surgery in the […] of the MCAO and drug treatment. The core body temperature was kept constant (37 ± 0.5 °C) for 24 h post reperfusion. Neurological deficit of rats was then assessed by the blinded Longa's method. […] The cerebral infarct area (White) was analyzed by Image-J and represented as a percentage of the total brain area. Histological alterations of brain samples from the remaining rats were analyzed via hematoxylin and esosin (H&E) staining and then observed under a microscope. The levels of malondialdehyde (MDA), superoxide dismutase (SOD) and glutathione peroxidase (GSH-Px) in brain lysates were determined 24 h after reperfusion according to the protocols of the specific agent kit (Servicebio, Wuhan, China).

Data set [3] can be described thus: Biodistribution in rats after oral administration. The data set is classed as in vivo. The note with it: p.o., 30 mg/kg, during 2 h. The protocol:
Before the start of the experiment, rats were fasted while allowed to drink freely overnight. […] Rats were sacrificed 0.083, 0.25, 0.5, 1 and 2 h post-administration, and subsequently, the vital organs involving heart, liver, spleen, kidney, lung as well as brain were harvested and processed by following procedures. In brief, the harvest tissues were weighed and homogenized in cold saline. The obtained tissue lysates (100 μL) was methanol precipitated and centrifuged (4 °C, 15 min) followed by injection of the supernatant (50 μL) into HPLC. The NBP concentration in each tissue sample was calculated from the respective standard curves. […] Re= AUC0−t, tissue, formulation/AUC0−t, tissue, NBP suspension (Wang et al., [2014]) Ce=Cmax, tissue, formulation/Cmax, tissue, NBP suspension (Wang et al., [2021])

[4] abbreviates: i.v., NBP solution, 30 mg/kg, n = 5.

In the case of `CCCCC1OC(=O)c2ccccc21` (stereo not drawn) [NBP, N-butylphthalide], in the data set “Pharmacokinetics in rats” (i.v., 30 mg/kg (reference)), the “Fa (absolute bioavailability)” value was found to be 100%. In the data set “Pharmacokinetics in rats” (setting [4]), this compound yielded an AUC0-t of 7590 ± 780 ng·h/mL, a CLz of 44.2 ± 4.17 mL/min/kg, a Cmax of 25510 ± 3460 ng/mL and a tmax of 4.98 min. In the data set “Pharmacokinetics in rats” (p.o., 30 mg/kg), the “Fa (absolute bioavailability)” value is listed as 21.7% and the “Fr (relative bioavailability to NBP suspension)” value turned out to be 100%. Also, the “time at which Cmax was observed on plasma curve” value in the data set “Pharmacokinetics in rats” (p.o., 30 mg/kg, Figure 3(B)) is 2 h. In “Pharmacokinetics in rats” (p.o., 30 mg/kg, n = 5), this compound had an AUC0-t of 1650 ± 320 ng·h/mL, a Cmax of 360 ± 130 ng/mL and a tmax of 61.2 ± 18.6 min. In “Pharmacokinetics in rats” (p.o., 30 mg/kg, n = 5, apparent clearance (CL/F)), the CLz turned out to be 201.8 ± 62.7 mL/min/kg. Moreover, the “cumulative release during 12 h” value in data set [1] (SGF pH 1.2 2 h then phosphate buffer pH 6.8, 37 °C) was 6.79 ± 0.99%. Moreover, in data set [1] (SGF pH 1.2, 37 °C, 100 rpm), the “cumulative drug release within 2 h” value was “about 6%”. In data set [1] (SGF pH 1.2 then phosphate buffer pH 6.8, 37 °C), the “24 h cumulative drug release amount” value was determined as 6.79 ± 0.99%. Also, in data set [2] (24 h), the “neurological score compared with I/R group” value is “no significant difference”. Also, the infarct volume in data set [2] (TTC staining, percentage of total brain area) was determined as 27.66 ± 2.59%. Further, in data set [3], the “organ of main accumulation” value was “mainly in the lung”.
